Laboratory results as given in patent EP0162330B1, “Use of sterolins and spiroketalins in the production of medicaments for the treatment of psoriasis” (Roecar Holdings (Netherlands Antilles) N.V., priority 1984, dated 1985).
One block for each compound: values may come before it.

Experiments:
[1] = biological target: T1, 12-lipoxygenase of the platelets (Homo sapiens, UniProt P18054); assay: Influence upon lipoxygenase: thrombin-stimulated washed human platelets (method of Schroer et al); type: cell-based; conditions: washed human platelets stimulated with thrombin (0.6 iU/ml)
T1 construct: endogenous in cells; host or cells: washed human platelets
T1 sequence (P18054 1-663): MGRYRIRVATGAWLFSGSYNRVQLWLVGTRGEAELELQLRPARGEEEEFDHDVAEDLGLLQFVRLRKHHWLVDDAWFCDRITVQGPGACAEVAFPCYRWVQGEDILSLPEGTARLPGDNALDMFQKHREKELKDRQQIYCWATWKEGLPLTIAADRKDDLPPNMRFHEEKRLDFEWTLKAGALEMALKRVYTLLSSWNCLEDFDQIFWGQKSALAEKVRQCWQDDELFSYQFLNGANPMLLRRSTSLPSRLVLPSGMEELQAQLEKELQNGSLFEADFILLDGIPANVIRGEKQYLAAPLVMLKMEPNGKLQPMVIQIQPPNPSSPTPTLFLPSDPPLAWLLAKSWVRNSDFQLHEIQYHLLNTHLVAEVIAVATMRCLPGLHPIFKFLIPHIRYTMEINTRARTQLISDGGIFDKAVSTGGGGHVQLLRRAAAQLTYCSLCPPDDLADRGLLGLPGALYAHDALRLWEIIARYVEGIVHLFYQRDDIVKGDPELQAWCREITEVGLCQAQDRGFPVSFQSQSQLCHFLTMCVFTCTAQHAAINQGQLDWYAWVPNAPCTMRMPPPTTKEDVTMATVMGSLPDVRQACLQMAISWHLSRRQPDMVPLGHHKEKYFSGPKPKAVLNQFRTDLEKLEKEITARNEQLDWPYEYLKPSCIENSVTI
Procedure: The tests were performed according to the method devised by Schroer et al, Naunyn-Schmiedeberg's Arch. Pharmak. 313, 69 (1980). According to this method washed human platelets are stimulated with thrombin (0.6 iU/ml). Arachidonic acid released from the platelets upon stimulation is transformed by the 12-lipoxygenase of the platelets into 12-hydro-peroxy-eicosatetraenoic acid (12-HPETE).

[2] = system: antigen-induced SRS-A (leukotriene) mediated bronchoconstriction; assay: In vivo antigen-induced SRS-A (leukotriene) mediated bronchoconstriction (method of Anderson et al); design: species or system guinea pigs; conditions: n=8
Source text: The effect of β-Sitosterol-β-D-glucoside was investigated on antigen-induced SRS-A (leukotriene) mediated bronchoconstriction according to the method of Anderson et al (Br. J. Pharmacol. 78,67-74, 1983). Twenty-eight to thirty-three days after the single ovalbumine dose the guinea pigs were anaesthetised and surgically prepared for intravenous administration of the test compounds and measuring the ventilatory pressure. Prior to the antigen (ovalbumine) challenge the animals were adequately pretreated with indomethacin, pyrilamine and propanolol to eliminate the effect of other interfering mediators released during the anaphylactic reaction. The test substance was administered 1 minute before the ovalbumine challenge.
The vehicle (50% DMSO in water) served as a control. Phenindone was used as the standard reference substance.

12-lipoxygenase [3] = biological target: T2, 12-lipoxygenase (Homo sapiens, UniProt P18054); assay: In vitro lipoxygenase inhibition in platelets, arachidonic acid products by radio thin-layer chromatography; type: cell-based; conditions: 120' saturated solution
T2 construct: endogenous in cells; host or cells: washed human platelets
T2 sequence (P18054 1-663): T1 sequence (P18054 1-663)
Procedure: (§1) Washed and resuspended platelets or leucocytes were incubated in one test with a saturated solution of β-sitosterol β-D-glucoside (23,5 mg/10ml ethanol) and in a second test with a 10 times oversaturated solution with addition of 0.25 µCi arachidonic acid for 5 minutes. The test mixtures were then acidified and extracted with ethyl acetate. Separation of the reaction products was performed by radio-thinlayer-chromatography.
(§2) The number of leukocytes in test 1 was 2000 and in test 2, 1600 and the number of platelets in the platelets test 1 was 140 000 and in test 2 it was 240 000.
(§3) After incubation with the test substance a significant inhibition of the lipoxygenase products can be shown when using platelets leading to a near complete synthesis inhibition and accumulation of non-metabolized arachidonic acid. As far as leucocytes are concerned, there is a dosage-dependant inhibitory effect of the lipoxygenase whereby the changes are mainly based on 12-hydroxyeicoscatetraenoic acid (12-HETE) and 12-HPETE while lesser changes are observed for HHT.

12-lipoxygenase [4] = assay: In vitro lipoxygenase inhibition in leucocyte preparations, arachidonic acid products by radio thin-layer chromatography; type: cell-based, human
Procedure: as §1, §2, §3

[5] = 10 mg/kg i.v., 1 minute after challenge

- inhibition at 10 µM ([1]; 10 µM/ml): 97%
Compound: CCCCCC#CCC#CCC#CCC#CCCCC(=O)O [ETYA, 5,8,11,14-eicosatetraynoic acid, reference compound]

Compound: O=C1CCN(c2ccccc2)N1 [Phenidone, reference compound]
- MEAN CHANGE (AS % OF MAX ±S.E.M.) IN VENTILATION PRESSURE AFTER OVALBUMIN ADMINISTRATION [2, 5]: 3.1 ±1.0 % OF MAX

- 12 HETE 12 HPETE in % (12-lipoxygenase [3]; test 1, platelets (140 000), normal 39.8): 3.8%
- 12 HETE 12 HPETE in % (12-lipoxygenase [3]; test 2, platelets (240 000), normal 35.0): 11.9%
Compound: CC[C@H](CC[C@@H](C)[C@H]1CC[C@H]2[C@@H]3CC=C4C[C@@H](O[C@@H]5O[C@H](CO)[C@@H](O)[C@H](O)[C@H]5O)CC[C@]4(C)[C@H]3CC[C@]12C)C(C)C [β-Sitosterol- β-D-glucoside, β-sitosterol β-D-glucoside]
- MEAN CHANGE (AS % OF MAX ±S.E.M.) IN VENTILATION PRESSURE AFTER OVALBUMIN ADMINISTRATION ([2]; 1 mg/kg i.v., 1 minute after challenge): 5.8 ±4.5 % OF MAX
- MEAN CHANGE (AS % OF MAX ±S.E.M.) IN VENTILATION PRESSURE AFTER OVALBUMIN ADMINISTRATION [2, 5]: 1.8 ±2.8 % OF MAX
- MEAN CHANGE (AS % OF MAX ±S.E.M.) IN VENTILATION PRESSURE AFTER OVALBUMIN ADMINISTRATION ([2]; 10 mg/kg i.v., 2 minutes after challenge): 31.0 ±9.8 % OF MAX
- 12 HETE 12 HPETE in % (12-lipoxygenase [4]; test 1, leukocytes (2000), 30' oversaturated (10 times) solution, normal 50.2): 12.4%
- 12 HETE 12 HPETE in % (12-lipoxygenase [4]; test 1, leukocytes (2000), 30' saturated solution (23,5 mg/10ml ethanol), normal 50.2): 35.9%
- 12 HETE 12 HPETE in % (12-lipoxygenase [4]; test 1, leukocytes (2000), 120' saturated solution, normal 50.2): 13.4%
- 12 HETE 12 HPETE in % (12-lipoxygenase [4]; test 2, leukocytes (1600), 30' oversaturated (10 times) solution, normal 48.0): 22.7%
- 12 HETE 12 HPETE in % (12-lipoxygenase [4]; test 2, leukocytes (1600), 30' saturated solution, normal 48.0): 37.0%
- 12 HETE 12 HPETE in % (12-lipoxygenase [4]; test 2, leukocytes (1600), 120' saturated solution, normal 48.0): 2.7%

- inhibition ([1]; 5 µM/ml): 13%
- inhibition ([1]; 10 µM/ml): 31%
- inhibition ([1]; 50 uM/ml): 60%
Compound: Diosgeninglucoside
